What was measured:
AMBEL (Ragweed, Common) = assay: Postemergence herbicidal evaluation; format: in vivo, Ambrosia artemisifolia
Summary of the method: (§1)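 Two-week seedlings sprayed postemergence at 40 psi; formulation: 1:1 acetone/water, 0.5% TWEEN 20; application ≈0.0156–0.500 kg/ha. Greenhouse grow-out, then 0–9 visual scoring at 4–5 weeks.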

CASOB (Sicklepod) = assay: Postemergence herbicidal evaluation; format: in vivo, Cassia obtusifolia
Summary of the method: as §1

GALAP (Galium) [1] = assay: Postemergence herbicidal evaluation; format: in vivo, Galium aparine
Summary of the method: as §1

[2] = test system: GLXMAW (Soybean, Williams); assay: Postemergence herbicidal evaluation; format: in vivo, Glycine max, (L.) Merr. cv Williams
Summary of the method: as §1

[3] = test system: TRZAWR (Wheat, Winter, cv Riband); assay: Postemergence herbicidal evaluation; format: in vivo, Triticum aestivum
Summary of the method: as §1

GALAP (Galium) [4] = assay: Preemergence herbicidal evaluation; format: in vivo, Galium aparine; details: rated 4-5 weeks after treatment
Summary of the method: (§2)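 Test compound, dissolved in aqueous acetone, was sprayed over planted soil cups at an equivalent of about 0.0156 to 0.500 kg/ha; seeds had been mixed with potting soil. Greenhouse growth followed, with visual 0-9 scoring of injury at four to five weeks.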

SETVI (Foxtail, Green) = assay: Preemergence herbicidal evaluation; format: in vivo, Setaria viridis; details: rated 4-5 weeks after treatment
Summary of the method: as §2

ORYSAT (Rice, Tebonnet) = assay: Preemergence herbicidal evaluation; format: in vivo, Oryza sativa, (L.) Tebonnet; details: rated 4-5 weeks after treatment
Summary of the method: as §2

[5] = test system: ECHORC (Watergrass (Calif.)); assay: Preemergence weed control under flooded paddy conditions; format: in vivo, Echinochloa oryzoides; details: rated 3-4 weeks after treatment
Summary of the method: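 Visual injury scored 0-9 against control three to four weeks post-treatment, greenhouse-grown. Application: acetone/water (50/50) solutions dosed directly into flood water (1.5-3 cm over silt loam, planted top 0.5 cm), roughly 0.0313 to 0.500 kg/ha active ingredient.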

CYPSE (Flatsedge) = assay: as above; format: in vivo, Cyperus serotinus; details: rated 3-4 weeks after treatment
Summary of the method: (§3)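 Silt loam, seeds in top 0.5 cm; flood held 1.5-3 cm; test cpd as acetone/water 50/50 into flood water, ~0.0313-0.500 kg/ha a.i.; greenhouse 3-4 wk; visual 0-9 score vs control.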

MOOVA (Monochoria) = assay: as above; format: in vivo, Monochoria vaginalis; details: rated 3-4 weeks after treatment
Summary of the method: as §3

[6] = test system: SAGPY (Arrowhead (Pygmaea)); assay: as above; format: in vivo, Sagittaria pygmaea; details: rated 3-4 weeks after treatment
Summary of the method: as §3

[7] = test system: ECHORC (Watergrass (Calif.)); assay: Postemergence weed control under flooded paddy conditions; format: in vivo, Echinochloa oryzoides; details: postemergence weeds, rated 3 to 4 weeks after treatment
Summary of the method: (§4)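 Herbicidal effect is judged by eye on a 0–9 scale versus control, 3–4 weeks after dosing. Dosing is into flood water kept 1.5–3 cm over the soil, at about 0.0313–0.500 kg/ha in aqueous/acetone 50/50 v/v, on 3–5 cm weeds and 1.5–2.5-leaf rice seedlings.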

[8] = test system: SAGPY (Arrowhead (Pygmaea)); assay: as above; format: in vivo, Sagittaria pygmaea; details: postemergence weeds, rated 3 to 4 weeks after treatment
Summary of the method: as §4

CCOC(=O)CN1C(=O)C(CC(=O)OC(C)C)SC1=Nc1cc(-n2c(=O)cc(C(F)(F)F)n(C)c2=O)c(F)cc1Cl (centres unmarked) [Compound 60, 2-{{2-Chloro-5-[3,6-dihydro-3-methyl-2,6-dioxo-4-(trifluoromethyl)-1(2H)-pyrimidinyl]-4-fluoro-phenyl}imino}-4-oxo-3,5-thiazolidinediacetic acid, 3-ethyl isopropyl ester]
Postemergence herbicidal rating AMBEL (AMBEL (Ragweed, Common); Rate 0.0158 kg/ha): 7.0
Postemergence herbicidal rating AMBEL (AMBEL (Ragweed, Common); Rate 0.0315 kg/ha): 9.0
Postemergence herbicidal rating AMBEL (AMBEL (Ragweed, Common); Rate 0.0630 kg/ha): 9.0
Postemergence herbicidal rating CASOB (CASOB (Sicklepod); Rate 0.0158 kg/ha): 0.0
Postemergence herbicidal rating CASOB (CASOB (Sicklepod); Rate 0.0315 kg/ha): 0.0
Postemergence herbicidal rating CASOB (CASOB (Sicklepod); Rate 0.0630 kg/ha): 3.0
Postemergence herbicidal rating GALAP (GALAP (Galium) [1]; Rate 0.0158 kg/ha): 0.0
Postemergence herbicidal rating GALAP (GALAP (Galium) [1]; Rate 0.0315 kg/ha): 2.0
Postemergence herbicidal rating GALAP (GALAP (Galium) [1]; Rate 0.0630 kg/ha): 5.0
Postemergence herbicidal rating GLXMAW ([2]; Rate 0.0158 kg/ha): 6.5
Postemergence herbicidal rating GLXMAW ([2]; Rate 0.0315 kg/ha): 6.5
Postemergence herbicidal rating GLXMAW ([2]; Rate 0.0630 kg/ha): 7.0
Postemergence herbicidal rating TRZAWR ([3]; Rate 0.0158 kg/ha): 4.5
Postemergence herbicidal rating TRZAWR ([3]; Rate 0.0315 kg/ha): 4.5
Postemergence herbicidal rating TRZAWR ([3]; Rate 0.0630 kg/ha): 4.5
Preemergence herbicidal rating GALAP (GALAP (Galium) [4]; rate 0.0156 kg/ha): 0.0
Preemergence herbicidal rating GALAP (GALAP (Galium) [4]; rate 0.0313 kg/ha): 0.0
Preemergence herbicidal rating GALAP (GALAP (Galium) [4]; rate 0.0625 kg/ha): 0.0
Preemergence herbicidal rating GALAP (GALAP (Galium) [4]; rate 0.1250 kg/ha): 0.0
Preemergence herbicidal rating GALAP (GALAP (Galium) [4]; rate 0.2500 kg/ha): 0.0
Preemergence herbicidal rating SETVI (SETVI (Foxtail, Green); rate 0.0156 kg/ha): 0.0
Preemergence herbicidal rating SETVI (SETVI (Foxtail, Green); rate 0.0313 kg/ha): 0.5
Preemergence herbicidal rating SETVI (SETVI (Foxtail, Green); rate 0.0625 kg/ha): 0.5
Preemergence herbicidal rating SETVI (SETVI (Foxtail, Green); rate 0.1250 kg/ha): 4.5
Preemergence herbicidal rating SETVI (SETVI (Foxtail, Green); rate 0.2500 kg/ha): 4.5
Preemergence herbicidal rating SETVI (SETVI (Foxtail, Green); rate 0.5000 kg/ha): 8.0
Preemergence herbicidal rating ORYSAT (ORYSAT (Rice, Tebonnet); rate 0.0156 kg/ha): 0.0
Preemergence herbicidal rating ORYSAT (ORYSAT (Rice, Tebonnet); rate 0.0313 kg/ha): 0.0
Preemergence herbicidal rating ORYSAT (ORYSAT (Rice, Tebonnet); rate 0.0625 kg/ha): 0.0
Preemergence herbicidal rating ORYSAT (ORYSAT (Rice, Tebonnet); rate 0.1250 kg/ha): 0.5
Preemergence herbicidal rating ORYSAT (ORYSAT (Rice, Tebonnet); rate 0.2500 kg/ha): 2.0
Preemergence herbicidal rating ORYSAT (ORYSAT (Rice, Tebonnet); rate 0.5000 kg/ha): 7.0
ECHORC herbicidal effect rating ([5]; 0.0313 kg/ha): 7.0
ECHORC herbicidal effect rating ([5]; 0.0625 kg/ha): 9.0
ECHORC herbicidal effect rating ([5]; 0.1250 kg/ha): 9.0
ECHORC herbicidal effect rating ([5]; 0.2500 kg/ha): 9.0
CYPSE herbicidal effect rating (CYPSE (Flatsedge); 0.0313 kg/ha): 2.0
CYPSE herbicidal effect rating (CYPSE (Flatsedge); 0.0625 kg/ha): 2.0
CYPSE herbicidal effect rating (CYPSE (Flatsedge); 0.1250 kg/ha): 4.0
CYPSE herbicidal effect rating (CYPSE (Flatsedge); 0.2500 kg/ha): 4.0
MOOVA herbicidal effect rating (MOOVA (Monochoria); 0.0313 kg/ha): 9.0
MOOVA herbicidal effect rating (MOOVA (Monochoria); 0.0625 kg/ha): 9.0
MOOVA herbicidal effect rating (MOOVA (Monochoria); 0.1250 kg/ha): 9.0
MOOVA herbicidal effect rating (MOOVA (Monochoria); 0.2500 kg/ha): 9.0
SAGPY herbicidal effect rating ([6]; 0.0313 kg/ha): 3.0
SAGPY herbicidal effect rating ([6]; 0.0625 kg/ha): 4.0
SAGPY herbicidal effect rating ([6]; 0.1250 kg/ha): 9.0
SAGPY herbicidal effect rating ([6]; 0.2500 kg/ha): 9.0
Herbicidal rating ECHORC ([7]; Rate 0.0313 kg/ha): 7.0
Herbicidal rating ECHORC ([7]; Rate 0.0625 kg/ha): 9.0
Herbicidal rating ECHORC ([7]; Rate 0.1250 kg/ha): 9.0
Herbicidal rating ECHORC ([7]; Rate 0.2500 kg/ha): 9.0
Herbicidal rating SAGPY ([8]; Rate 0.0313 kg/ha): 3.0
Herbicidal rating SAGPY ([8]; Rate 0.0625 kg/ha): 4.0
Herbicidal rating SAGPY ([8]; Rate 0.1250 kg/ha): 9.0
Herbicidal rating SAGPY ([8]; Rate 0.2500 kg/ha): 9.0

C=CCN1C(=O)C(CC(=O)O)SC1=Nc1cc(-n2c(=O)cc(C(F)(F)F)n(C)c2=O)c(F)cc1Cl (centres unmarked) [Compound 62, 3-Allyl-2-{{2-chloro-5-[3,6-dihydro-3-methyl-2,6-dioxo-4-(trifluoromethyl)-1(2H)-pyrimidinyl]-4-fluorophenyl}imino}-4-oxo-5-thiazolidineacetic acid]
Postemergence herbicidal rating AMBEL (AMBEL (Ragweed, Common); Rate 0.0158 kg/ha): 9.0
Postemergence herbicidal rating AMBEL (AMBEL (Ragweed, Common); Rate 0.0315 kg/ha): 7.0
Postemergence herbicidal rating AMBEL (AMBEL (Ragweed, Common); Rate 0.0630 kg/ha): 9.0
Postemergence herbicidal rating CASOB (CASOB (Sicklepod); Rate 0.0158 kg/ha): 1.0
Postemergence herbicidal rating CASOB (CASOB (Sicklepod); Rate 0.0315 kg/ha): 2.0
Postemergence herbicidal rating CASOB (CASOB (Sicklepod); Rate 0.0630 kg/ha): 6.0
Postemergence herbicidal rating GALAP (GALAP (Galium) [1]; Rate 0.0158 kg/ha): 1.0
Postemergence herbicidal rating GALAP (GALAP (Galium) [1]; Rate 0.0315 kg/ha): 5.0
Postemergence herbicidal rating GALAP (GALAP (Galium) [1]; Rate 0.0630 kg/ha): 5.0
Postemergence herbicidal rating GLXMAW ([2]; Rate 0.0158 kg/ha): 7.5
Postemergence herbicidal rating GLXMAW ([2]; Rate 0.0315 kg/ha): 7.5
Postemergence herbicidal rating GLXMAW ([2]; Rate 0.0630 kg/ha): 8.5
Postemergence herbicidal rating TRZAWR ([3]; Rate 0.0158 kg/ha): 5.0
Postemergence herbicidal rating TRZAWR ([3]; Rate 0.0315 kg/ha): 5.5
Postemergence herbicidal rating TRZAWR ([3]; Rate 0.0630 kg/ha): 7.0
Preemergence herbicidal rating GALAP (GALAP (Galium) [4]; rate 0.0156 kg/ha): 0.0
Preemergence herbicidal rating GALAP (GALAP (Galium) [4]; rate 0.0313 kg/ha): 0.0
Preemergence herbicidal rating GALAP (GALAP (Galium) [4]; rate 0.0625 kg/ha): 0.0
Preemergence herbicidal rating GALAP (GALAP (Galium) [4]; rate 0.1250 kg/ha): 6.0
Preemergence herbicidal rating GALAP (GALAP (Galium) [4]; rate 0.2500 kg/ha): 9.0
Preemergence herbicidal rating SETVI (SETVI (Foxtail, Green); rate 0.0156 kg/ha): 0.0
Preemergence herbicidal rating SETVI (SETVI (Foxtail, Green); rate 0.0313 kg/ha): 0.0
Preemergence herbicidal rating SETVI (SETVI (Foxtail, Green); rate 0.0625 kg/ha): 6.0
Preemergence herbicidal rating SETVI (SETVI (Foxtail, Green); rate 0.1250 kg/ha): 9.0
Preemergence herbicidal rating SETVI (SETVI (Foxtail, Green); rate 0.2500 kg/ha): 9.0
Preemergence herbicidal rating ORYSAT (ORYSAT (Rice, Tebonnet); rate 0.0156 kg/ha): 0.0
Preemergence herbicidal rating ORYSAT (ORYSAT (Rice, Tebonnet); rate 0.0313 kg/ha): 0.0
Preemergence herbicidal rating ORYSAT (ORYSAT (Rice, Tebonnet); rate 0.0625 kg/ha): 1.0
Preemergence herbicidal rating ORYSAT (ORYSAT (Rice, Tebonnet); rate 0.1250 kg/ha): 4.0
Preemergence herbicidal rating ORYSAT (ORYSAT (Rice, Tebonnet); rate 0.2500 kg/ha): 6.0
ECHORC herbicidal effect rating ([5]; 0.0313 kg/ha): 0.0
ECHORC herbicidal effect rating ([5]; 0.0625 kg/ha): 0.0
ECHORC herbicidal effect rating ([5]; 0.1250 kg/ha): 2.0
ECHORC herbicidal effect rating ([5]; 0.2500 kg/ha): 5.0
CYPSE herbicidal effect rating (CYPSE (Flatsedge); 0.0313 kg/ha): 0.0
CYPSE herbicidal effect rating (CYPSE (Flatsedge); 0.0625 kg/ha): 0.0
CYPSE herbicidal effect rating (CYPSE (Flatsedge); 0.1250 kg/ha): 0.0
CYPSE herbicidal effect rating (CYPSE (Flatsedge); 0.2500 kg/ha): 0.0
MOOVA herbicidal effect rating (MOOVA (Monochoria); 0.0313 kg/ha): 4.0
MOOVA herbicidal effect rating (MOOVA (Monochoria); 0.0625 kg/ha): 9.0
MOOVA herbicidal effect rating (MOOVA (Monochoria); 0.1250 kg/ha): 9.0
MOOVA herbicidal effect rating (MOOVA (Monochoria); 0.2500 kg/ha): 9.0
SAGPY herbicidal effect rating ([6]; 0.0313 kg/ha): 0.0
SAGPY herbicidal effect rating ([6]; 0.0625 kg/ha): 0.0
SAGPY herbicidal effect rating ([6]; 0.1250 kg/ha): 3.0
SAGPY herbicidal effect rating ([6]; 0.2500 kg/ha): 6.0
Herbicidal rating ECHORC ([7]; Rate 0.0313 kg/ha): 0.0
Herbicidal rating ECHORC ([7]; Rate 0.0625 kg/ha): 0.0
Herbicidal rating ECHORC ([7]; Rate 0.1250 kg/ha): 2.0
Herbicidal rating ECHORC ([7]; Rate 0.2500 kg/ha): 5.0
Herbicidal rating SAGPY ([8]; Rate 0.0313 kg/ha): 0.0
Herbicidal rating SAGPY ([8]; Rate 0.0625 kg/ha): 0.0
Herbicidal rating SAGPY ([8]; Rate 0.1250 kg/ha): 3.0
Herbicidal rating SAGPY ([8]; Rate 0.2500 kg/ha): 6.0
